# Experimental data taken from BindingDB's records for doi:10.1016/j.bmcl.2006.12.084 (Gsk, 2007).
# Biological target: Free fatty acid receptor 1 (Homo sapiens, UniProt O14842)
# Assay: 96-Well Adherent Reporter Cell Assay
# Protocol: The reporter assay for the stable hGPR40-Gal4-Elk1/5xGal4-luc+-expressing CHO cells was first carried out in the serum-free medium in the presence of test ligand for 5h. The medium was then removed and replaced with 1:1 mixture of LucPlusTM (PerkinElmer Life Sciences) and Dulbecco phosphate buffered saline containing 1 mM CaCl2 and 1 mM MgCl2. Plates were incubated in the dark at room temperature for 10 min before luciferase activity was determined using a TopCountTM microplate scintillation counter (PerkinElmer Life Sciences) at a count time of 3 s/well.
# Chain of Free fatty acid receptor 1 (O14842 whole entry): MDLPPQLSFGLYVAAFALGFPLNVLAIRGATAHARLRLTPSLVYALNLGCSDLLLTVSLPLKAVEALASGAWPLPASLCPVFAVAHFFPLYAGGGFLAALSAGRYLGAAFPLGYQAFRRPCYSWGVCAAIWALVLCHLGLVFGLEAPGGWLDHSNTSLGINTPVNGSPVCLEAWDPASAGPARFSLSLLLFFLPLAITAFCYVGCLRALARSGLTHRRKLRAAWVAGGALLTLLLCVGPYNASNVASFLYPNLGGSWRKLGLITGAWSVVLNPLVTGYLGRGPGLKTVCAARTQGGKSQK
EC50 (22 °C) [µM],EC50 (25 °C) [µM],Structure (SMILES)
,> 31.6,N#Cc1ccc(CNc2ccc(CCC(=O)O)cc2)cc1 [3-(4-{[(4-cyanophenyl)methyl]amino}phenyl)propanoic acid]
,> 31.6,O=C(O)CCc1ccc(NCc2ccc(O)cc2)cc1 [3-(4-{[(4-hydroxyphenyl)methyl]amino}phenyl)propanoic acid]
2,,O=C(O)CCc1ccc(NCc2ccc(C(F)(F)F)cc2)cc1 [3-[4-({[4-(trifluoromethyl)phenyl]methyl}amino)phenyl]propanoic acid]
,> 31.6,O=C(O)CCc1ccc(NCc2ccc(C(=O)O)cc2)cc1 [4-({[4-(2-carboxyethyl)phenyl]amino}methyl)benzoic acid]

# Further lines, the compound ahead of its results:
Structure (SMILES),EC50 (22 °C) [µM],EC50 (25 °C) [µM]
CC(C(=O)O)c1ccc(NCc2ccc(-c3ccccc3)cc2)cc1 (configuration not stated) [2-(4-{[(4-phenylphenyl)methyl]amino}phenyl)propanoic acid],> 31.6,
NC(=O)c1cccc(CNc2ccc(CCC(=O)O)cc2)c1 [3-(4-{[(3-carbamoylphenyl)methyl]amino}phenyl)propanoic acid],,> 31.6
CS(=O)(=O)Nc1cccc(CNc2ccc(CCC(=O)O)cc2)c1 [3-(4-{[(3-methanesulfonamidophenyl)methyl]amino}phenyl)propanoic acid],,> 31.6
O=C(O)CCc1ccc(NCc2ccc(Cl)s2)cc1 [3-(4-{[(5-chlorothiophen-2-yl)methyl]amino}phenyl)propanoic acid],2,
O=C(O)CCc1ccc(NCc2ncc[nH]2)cc1 [3-{4-[(1H-imidazol-2-ylmethyl)amino]phenyl}propanoic acid],,> 31.6
"O=C(O)CCc1ccc(NCc2ccc3c(c2)OCO3)cc1 [3-{4-[(2H-1,3-benzodioxol-5-ylmethyl)amino]phenyl}propanoic acid]",,> 31.6
O=C(O)CCc1ccc(NCc2cccnc2)cc1 [3-{4-[(pyridin-3-ylmethyl)amino]phenyl}propanoic acid],> 31.6,
CN(C)Cc1ccc(CNc2ccc(CCC(=O)O)cc2)cc1 [3-{4-[({4-[(dimethylamino)methyl]phenyl}methyl)amino]phenyl}propanoic acid],> 31.6,
